# Reference: patent publication US11643439B2, “Multi-target compound with anticoagulation and antiplatelet activity, preparation method therefor, and use thereof” (SHAANXI MICOT TECHNOLOGY LIMITED COMPANY, priority 2015, dated 2023)
# Marks after values point to notes of the source that are not given here.
# Key:
# [1] = system: FeCl3-induced inferior vena cava thrombosis; experiment: FeCl3-induced inferior vena cava thrombosis in rats; type: in vivo, rat
# Protocol: 160 Rats were randomly divided into groups, 5 to 10 rats per group.
# According to the body weight in kilograms of the rats, the first dose of a drug was dissolved in 2 mL of physiological saline for single bolus injection. The maintaining dose of drug was dissolved in 9 ml of physiological saline, and placed in a double-channel micro-injection pump, which was dripped off within 90 minutes at a dripping speed of 0.1 ml/min. The sham operation group was administered with the same volume of physiological saline.
# The rats were fasted with free access to water overnight before the experiment.
# 15 minutes later, the filter paper was removed. And then, after observation for 45 minutes, the blood vessels and local tissues were rinsed with warm physiological saline, and the covered blood vessels were cut off. The thrombus which attached to the blood vessel walls was peeled off to be weighed on a tin foil for its wet weight, and then weighed overnight at room temperature for its dry weight. The administration was continued until the completion of the experiment.
# After the experiment was completed, the segment of the blood vessels in which there had been thrombus formation was cut off, weighed for the wet weight, and then weighed overnight at room temperature for the dry weight of the thrombus. Thrombosis inhibitory rate was calculated.
# [2] = system: FeCl3-induced femoral artery thrombosis; experiment: FeCl3-induced femoral artery thrombosis in rabbits, single intravenous administration; type: in vivo, rabbit
# Protocol: (§1) 1. Grouping and administration: 48 Rabbits were randomly divided into 6 groups, 8 rabbits per group. 1) Sham operation group (NS): Intravenous injection of the same volume of physiological saline; 2) positive control bivalirudin group (6 mg/kg); 3) positive control enoxaparin group (200 U/kg); 4) Low dose group of polypeptide 2 (3.0 mg/kg); 5) Medium dose group of polypeptide 2 (6.0 mg/kg); 6) High dose group of polypeptide 2 (12.0 mg/kg). Polypeptide 2 was administered by single intravenous administration. According to the body weight in kilograms of the rabbits, the sample was dissolved in 2 mL of physiological saline for single bolus injection. The sham operation group was administered with the same volume of physiological saline.
# 2.1 Surgery preparation of rabbits: Rabbit were sent to the laboratory for accommodation for one day, and then screened at first. Blood samples were taken from arteries within ears, which were subjected to blood routine analysis and APTT examinations, and the rabbits with a normal blood hemogram and APTT between 16 and 28 seconds were selected for experiments. The rabbits to be tested were fasted with free access to water in the night before the experiment. The rabbits were anesthetized with intravenous injection of 3% sodium pentobarbital solution at 1 ml/kg, fixed in the supine position, and then, the common carotid artery at one side, external jugular vein, femoral artery at one side, femoral vein, and forelimb vein at one side were isolated. The forelimb vein was subjected to intubation for administration; the left femoral vein was subjected to intubation for blood collection to determine the platelet aggregation rate: the femoral artery was used for the establishment of an arterial thrombosis model; the common carotid artery and external jugular vein were used for the establishment of an arterial and venous bypass thrombosis model.
# 2.3 Arterial thrombosis (AT) model: A small piece of filter paper (1 cm×1.5 cm) absorbed with 50% FeCl3 solution was applied onto the right femoral artery while administration, below which a small piece of a plastic film (2.5 cm×2.0 cm) was placed to protect surrounding tissues. After 10 minutes, the filter paper was removed, and then, the blood vessels and local tissues were rinsed with warm physiological saline, and the covered blood vessels were cut off. The thrombus which attached to the blood vessel walls was peeled off to be weighed on a tin foil for its wet weight, and then kept overnight at room temperature and weighed for its dry weight.
# The femoral arteries in the […] and both sides in the rabbits were isolated and stabilized for 10 min before the administration was started. An AT model was established by covering the femoral artery with 50% FeCl3 filter paper while administration, and the filter paper was removed after covering for 15 minutes. An AVST model was established and it was taken out after […]. Observation was continued for 120 min after administration until the experiment was completed.
# 3.4 Thrombus weight: After the experiment was completed, the segment of the blood vessels in which there had been thrombus formation was cut off, weighed for the wet weight, and then kept overnight at room temperature and weighed for the dry weight. The thrombosis inhibitory rate was calculated with a calculation equation as follows: […]
# [3] = system: blood coagulation function; experiment: APTT in rabbits, single intravenous administration; type: in vivo, rabbit
# Protocol: as §1
# (§2) 3.2 Determination of blood coagulation function: Blood samples were taken and the blood function (PT, TT, APTT) was determined at 0 min before administration, at points of 5 min and 15 min after administration, using a platelet-aggregation coagulation factor analyzer. Blood samples were centrifuged at 3510 rpm for 8 min to obtain platelet poor plasma (PPP). Reagent reconstruction and preservation were performed according to the operation requirements of the kit. Immediately after each blood sample was placed into a test cup and then added with PT. TT and APTT reagents, the test was started. After the test was completed, results were recorded.
# [4] = system: blood coagulation function; experiment: PT in rabbits, single intravenous administration; type: in vivo, rabbit
# Protocol: as §1, §2
# [5] = system: blood coagulation function; experiment: TT in rabbits, single intravenous administration; type: in vivo, rabbit
# Protocol: as §1, §2
# [6] = iv 0.041 + 0.125 (mg/kg + mg/kg/h)
# [7] = iv 0.125 + 0.375 (mg/kg + mg/kg/h)
# [8] = iv 0.25 + 0.75 (mg/kg + mg/kg/h)
# [9] = iv 0.5 + 1.25 (mg/kg + mg/kg/h)
# [10] = iv 1.5 + 3.75 (mg/kg + mg/kg/h)
# [11] = single iv 3.0 mg/kg, Administration 5 min
# [12] = single iv 3.0 mg/kg, Administration 15 min
# [13] = single iv 3.0 mg/kg, Administration for 5 min
# [14] = single iv 3.0 mg/kg, Administration for 15 min
# [15] = single iv 3.0 mg/kg, Before administration
# [16] = single iv 6.0 mg/kg, Administration 5 min
# [17] = single iv 6.0 mg/kg, Administration 15 min
# [18] = single iv 6.0 mg/kg, Administration for 5 min
# [19] = single iv 6.0 mg/kg, Administration for 15 min
# [20] = single iv 6.0 mg/kg, Before administration
# [21] = single iv 12.0 mg/kg, Administration 5 min
# [22] = single iv 12.0 mg/kg, Administration 15 min
# [23] = single iv 12.0 mg/kg, Administration for 5 min
# [24] = single iv 12.0 mg/kg, Administration for 15 min
# [25] = single iv 12.0 mg/kg, Before administration
# [26] = iv 0.08 + 0.325 (mg/kg + mg/kg/h)
# [27] = iv 0.17 + 0.65 (mg/kg + mg/kg/h)
# [28] = iv 0.35 + 1.3 (mg/kg + mg/kg/h)
# [29] = single iv 200 (U/kg), Administration 5 min
# [30] = single iv 200 (U/kg), Administration 15 min
# [31] = single iv 200 (U/kg), Administration for 5 min
# [32] = single iv 200 (U/kg), Administration for 15 min
# [33] = single iv 200 (U/kg), Before administration
substance,measurement,setting,value
D-Phe Pro Arg Pro Gly Gly Gly Gly Asn Gly Asp Phe Glu Glu Ile Pro Glu Glu Tyr Leu Glu Ala Ala Ala Lys Cys Har Gly Asp Trp Pro Cys [Polypeptide 2],Inferior vena cava thrombosis Inhibition percentage,[1]; [6],10.38%
same,Inferior vena cava thrombosis Thrombus weight,[1]; [6],20.20 ± 10.00 mg
same,Inferior vena cava thrombosis Inhibition percentage,[1]; [7],27.99%
same,Inferior vena cava thrombosis Thrombus weight,[1]; [7],16.23 ± 6.76 mg
same,Inferior vena cava thrombosis Inhibition percentage,[1]; [8],36.85%
same,Inferior vena cava thrombosis Thrombus weight,[1]; [8],14.23 ± 4.82 mg
same,Inferior vena cava thrombosis Inhibition percentage,[1]; [9],58.96%
same,Inferior vena cava thrombosis Thrombus weight,[1]; [9],9.25 ± 4.86 mg
same,Inferior vena cava thrombosis Inhibition percentage,[1]; iv 1 + 2.5 (mg/kg + mg/kg/h),56.03%
same,Inferior vena cava thrombosis Thrombus weight,[1]; iv 1 + 2.5 (mg/kg + mg/kg/h),9.91 ± 6.20 mg
same,Inferior vena cava thrombosis Inhibition percentage,[1]; [10],68.37%
same,Inferior vena cava thrombosis Thrombus weight,[1]; [10],7.13 ± 3.46 mg
same,Thrombus dry weight,[2]; single iv 3.0 mg/kg,1.4 ± 0.5 mg
same,Thrombus inhibitory rate,[2]; single iv 3.0 mg/kg,52.99%
same,Thrombus dry weight,[2]; single iv 6.0 mg/kg,1.2 ± 0.7 mg
same,Thrombus inhibitory rate,[2]; single iv 6.0 mg/kg,56.90%
same,Thrombus dry weight,[2]; single iv 12.0 mg/kg,1.1 ± 0.9 mg
same,Thrombus inhibitory rate,[2]; single iv 12.0 mg/kg,60.82%
same,APTT fold of prolongation,[3]; [11],1.2 ± 0.2
same,APTT fold of prolongation,[3]; [12],1.0 ± 0.1
same,APTT,[3]; [13],24.4 ± 4.2*^¥ s
same,APTT,[3]; [14],20.0 ± 3.1 s
same,APTT,[3]; [15],20.6 ± 1.2 s
same,APTT fold of prolongation,[3]; [16],2.1 ± 0.6
same,APTT fold of prolongation,[3]; [17],1.5 ± 0.4
same,APTT,[3]; [18],50.5 ± 3.6*^& s
same,APTT,[3]; [19],34.9 ± 2.7*^& s
same,APTT,[3]; [20],24.1 ± 1.0 s
same,APTT fold of prolongation,[3]; [21],2.3 ± 0.6
same,APTT fold of prolongation,[3]; [22],1.6 ± 0.5
same,APTT,[3]; [23],54.4 ± 3.6*^& s
same,APTT,[3]; [24],37.0 ± 2.7*^& s
same,APTT,[3]; [25],23.3 ± 1.0 s
same,PT fold of prolongation,[4]; [11],1.5 ± 0.4
same,PT fold of prolongation,[4]; [12],1.2 ± 0.2
same,PT,[4]; [13],8.9 ± 1.2 S
same,PT,[4]; [14],7.0 ± 0.8 S
same,PT,[4]; [15],6.0 ± 0.3 S
same,PT fold of prolongation,[4]; [16],2.0 ± 0.4
same,PT fold of prolongation,[4]; [17],1.4 ± 0.3
same,PT,[4]; [18],12.9 ± 1.1*^#¥ S
same,PT,[4]; [19],8.9 ± 0.7 S
same,PT,[4]; [20],6.3 ± 0.2 S
same,PT fold of prolongation,[4]; [21],3.0 ± 0.8
same,PT fold of prolongation,[4]; [22],2.0 ± 0.6
same,PT,[4]; [23],19.2 ± 1.1 *^¥& S
same,PT,[4]; [24],12.5 ± 0.7 *^¥&@ S
same,PT,[4]; [25],6.5 ± 0.2 S
same,TT,[5]; [15],21.0 ± 2.6 S
same,TT,[5]; [20],22.3 ± 1.9 S
same,TT,[5]; [25],21.8 ± 6.4 S
"Bivalirudin: Bivalirudin for Injection, Xi'an Xintong Pharmaceutical Research Co., Ltd.; positive control thrombin inhibitor",Inferior vena cava thrombosis Inhibition percentage,[1]; [26],20.03%
same,Inferior vena cava thrombosis Thrombus weight,[1]; [26],18.03 ± 1.39 mg
same,Inferior vena cava thrombosis Inhibition percentage,[1]; [27],35.97%
same,Inferior vena cava thrombosis Thrombus weight,[1]; [27],14.43 ± 3.84 mg
same,Inferior vena cava thrombosis Inhibition percentage,[1]; [28],68.67%
same,Inferior vena cava thrombosis Thrombus weight,[1]; [28],7.06 ± 4.07 mg
same,Inferior vena cava thrombosis Inhibition percentage,[1]; iv 0.5 + 2 (mg/kg + mg/kg/h),67.79%
same,Inferior vena cava thrombosis Thrombus weight,[1]; iv 0.5 + 2 (mg/kg + mg/kg/h),7.26 ± 3.15 mg
same,Thrombus dry weight,[2]; single iv 6.0 mg/kg,1.5 ± 0.9 mg
same,Thrombus inhibitory rate,[2]; single iv 6.0 mg/kg,48.20%
same,APTT fold of prolongation,[3]; [16],2.4 ± 0.3
same,APTT fold of prolongation,[3]; [17],1.4 ± 0.3
same,APTT,[3]; [18],50.4 ± 3.6 s
same,APTT,[3]; [19],30.9 ± 2.7 s
same,APTT,[3]; [20],21.6 ± 1.0 s
same,PT fold of prolongation,[4]; [16],3.0 ± 0.5
same,PT fold of prolongation,[4]; [17],1.6 ± 0.2
same,PT,[4]; [18],18.8 ± 1.1 S
same,PT,[4]; [19],10.2 ± 0.7 S
same,PT,[4]; [20],6.4 ± 0.2 S
same,TT,[5]; [18],>180 s
same,TT,[5]; [19],>180 s
same,TT,[5]; [20],22.4 ± 5.2 S
Enoxaparin,Inferior vena cava thrombosis Inhibition percentage,[1]; iv 30 + 45 u (U/kg+U/kg/h),34.93%
same,Inferior vena cava thrombosis Thrombus weight,[1]; iv 30 + 45 u (U/kg+U/kg/h),14.67 ± 8.44 mg
same,Inferior vena cava thrombosis Inhibition percentage,[1]; iv 30 + 120 u (U/kg+U/kg/h),49.07%
same,Inferior vena cava thrombosis Thrombus weight,[1]; iv 30 + 120 u (U/kg+U/kg/h),11.48 ± 2.81 mg
same,Inferior vena cava thrombosis Inhibition percentage,[1]; iv 60 + 60 u (U/kg+U/kg/h),50.42%
same,Inferior vena cava thrombosis Thrombus weight,[1]; iv 60 + 60 u (U/kg+U/kg/h),11.18 ± 4.47 mg
same,Inferior vena cava thrombosis Inhibition percentage,[1]; iv 60 + 240 u (U/kg+U/kg/h),86.25%
same,Inferior vena cava thrombosis Thrombus weight,[1]; iv 60 + 240 u (U/kg+U/kg/h),6.59 ± 2.54 mg
same,Inferior vena cava thrombosis Inhibition percentage,[1]; iv 90 + 120 u (U/kg+U/kg/h),64.06%
same,Inferior vena cava thrombosis Thrombus weight,[1]; iv 90 + 120 u (U/kg+U/kg/h),8.10 ± 3.67 mg
same,Thrombus dry weight,[2]; single iv 200 U (U/kg),1.5 ± 0.4 mg
same,Thrombus inhibitory rate,[2]; single iv 200 U (U/kg),48.26%
same,APTT fold of prolongation,[3]; [29],2.2 ± 0.5
same,APTT fold of prolongation,[3]; [30],1.8 ± 0.3
same,APTT,[3]; [31],48.7 ± 3.9 s
same,APTT,[3]; [32],40.9 ± 2.9 s
same,APTT,[3]; [33],22.5 ± 1.1 s
same,PT fold of prolongation,[4]; [29],1.2 ± 0.1
same,PT fold of prolongation,[4]; [30],1.2 ± 0.1
same,PT,[4]; [31],6.7 ± 1.1 S
same,PT,[4]; [32],6.7 ± 0.8 S
same,PT,[4]; [33],5.8 ± 0.2 S
same,TT,[5]; [31],>180 s
same,TT,[5]; [32],>180 s
same,TT,[5]; [33],20.7 ± 4.2 S
